Test results published in patent publication US20220031800A1, “PEPTIDES FOR TREATING NON-EXUDATIVE MACULAR DEGENERATION AND OTHER DISORDERS OF THE EYE” (Allegro Pharmaceuticals, LLC, priority 2019, published 2022).
Several values for one entry are separate records, joined by “and”; a condition that tells them apart may be missing. Identical values can stand only once. Square brackets hold non-standard residues; d marks the D form. Peptide text beside a SMILES is read from it. Cya = N[C@@H](CS(=O)(=O)O)C(=O)O

System: study eye of subjects with intermediate non-exudative AMD
Experiment: SD-OCT Analysis 2 (thickness, volume, map coverage of retinal layers)
Type: in vivo, human
Conditions: change from baseline at Week 32
Protocol: Numerous study assessments were conducted at various time points throughout the study. Included among these study assessments were; refractive eye examinations, determinations of BCVA AND low-luminance BCVA, Lanthony D-15 color vision test, measurement of intraocular pressure (IOP), Indirect ophthalmoscopy/dilated fundus examinations and spectral-domain optical coherence tomography (SD-OCT). Also, blood and saliva samples were obtained from each subject for genetic analysis. The above-listed study assessments were performed at the time points indicated in Table 1, below: The OCT scans were analyzed by two (2) unrelated experts. In Analysis #2, the OCT images of study eyes were analyzed to determine mean thickness and mean volume of numerous retinal subfields and layer segments at baseline and at Week 12 for sham eyes and at baseline and at Week 32 for risuteganib eyes, to document any significant differences between groups of eyes based on baseline measurements or changes from baseline in those measurements. In addition to the quantitative analysis of OCT images, OCT Analysis #2 included qualitative assessment of the OCT images to identify GA, pseudodrusen, and disruption of the ELM and EZ layers. FIGS. 9A, 9B and 9C illustrate the level of varying pathology within the ELM based on quantitative mapping that were also assessed, with FIG. 9A (left) showing no ELM disruption, FIG. 9B (center) showing segmental disruption, and FIG. 9C showing diffuse disruption.

[1] = risuteganib nonresponder eyes, n = 12
[2] = risuteganib responder eyes, n = 12
[3] = risuteganib super-responder eyes, n = 8

C[C@@H](O)[C@H](NC(=O)[C@H](CS(=O)(=O)O)NC(=O)CNC(=O)[C@H](CCCNC(=N)N)NC(=O)CN)C(=O)N1CCC[C@H]1C(=O)O [risuteganib, Glycyl-L-arginylglycyl-3-sulfo-L-alanyl-L-threonyl-L-proline] (H-GRG[Cya]TP-OH)
Change in mean thickness, Inner retina mid subfield [1]: 2.274 μm | Change in mean thickness, ONL-EZ central subfield [1]: −6.486 μm | Change in mean thickness, ONL-EZ mid subfield [1]: −4.522 μm | Change in mean thickness, ONL-RPE central subfield [1]: −7.877 μm | Change in mean thickness, ONL-RPE foveal center [1]: −7.626 μm | Change in mean thickness, ONL-RPE mid subfield [1]: −6.320 μm | Change in mean thickness, RPE-BM central subfield [1]: −0.118 μm | Change in mean thickness, RPE-BM foveal center [1]: −3.740 μm | Change in mean thickness, RPE-BM mid subfield [1]: 1.114 μm | Change in mean thickness, Total retinal central subfield [1]: −5.981 μm | Change in mean thickness, Total retinal foveal center [1]: −9.112 μm | Change in mean thickness, Total retinal mid subfield [1]: −4.046 μm | Change in volume, ELM-EZ central subfield [1]: −0.001 mm^3 | Change in volume, ELM-EZ mid subfield [1]: 0.002 mm^3 | Change in volume, ELM-RPE [1]: 0.009 mm^3 | Change in volume, ELM-RPE central subfield [1]: −0.002 mm^3 | Change in volume, ELM-RPE mid subfield [1]: −0.003 mm^3 | Change in volume, EZ-RPE [1]: 0.005 mm^3 | Change in volume, EZ-RPE central subfield [1]: −0.001 mm^3 | Change in volume, EZ-RPE mid subfield [1]: −0.006 mm^3 | Change in volume, ONL-EZ central subfield [1]: −0.005 mm^3 | Change in volume, ONL-EZ mid subfield [1]: −0.014 mm^3 | Change in volume, ONL-RPE [1]: −0.026 mm^3 | Change in volume, ONL-RPE central subfield [1]: −0.006 mm^3 | Change in volume, ONL-RPE mid subfield [1]: −0.020 mm^3 | Change in volume, RPE-BM [1]: 0.037 mm^3 | Change in volume, RPE-BM central subfield [1]: 0.000 mm^3 | Change in volume, RPE-BM mid subfield [1]: 0.004 mm^3 | Change in volume, Total retinal [1]: 0.091 mm^3 | Change in volume, Total retinal central subfield [1]: −0.004 mm^3 | Change in volume, Total retinal mid subfield [1]: −0.012 mm^3 | Map coverage, 0 μm EZ [1]: 1.469% | Map coverage, 0 μm RPE-BM [1]: 1.465% | Map coverage, 10 μm EZ [1]: 1.332% | Map coverage, 20 μm EZ [1]: 1.288% | Map coverage, 50 μm RPE-BM [1]: −1.794% | Map coverage, 150 μm RPE-BM [1]: 2.143% | Map coverage, 250 μm RPE-BM [1]: 0.000% | Change in mean thickness, ELM-EZ central subfield [2]: −2.322 μm | Change in mean thickness, ELM-EZ mid subfield [2]: −0.967 μm | Change in mean thickness, ELM-RPE central subfield [2]: −3.102 μm | Change in mean thickness, ELM-RPE foveal center [2]: −0.000 μm and 0.000 μm | Change in mean thickness, ELM-RPE mid subfield [2]: −2.141 μm | Change in mean thickness, EZ-RPE central subfield [2]: −0.779 μm | Change in mean thickness, EZ-RPE foveal center [2]: 0.975 μm | Change in mean thickness, EZ-RPE mid subfield [2]: −1.174 μm | Change in mean thickness, Inner retina central subfield [2]: 5.864 μm | Change in mean thickness, Inner retina mid subfield [2]: 5.512 μm | Change in mean thickness, ONL-EZ central subfield [2]: −5.775 μm | Change in mean thickness, ONL-EZ mid subfield [2]: −5.386 μm | Change in mean thickness, ONL-RPE central subfield [2]: −6.555 μm | Change in mean thickness, ONL-RPE foveal center [2]: 0.650 μm | Change in mean thickness, ONL-RPE mid subfield [2]: −6.561 μm | Change in mean thickness, RPE-BM central subfield [2]: −8.238 μm | Change in mean thickness, RPE-BM foveal center [2]: −12.512 μm | Change in mean thickness, RPE-BM mid subfield [2]: −5.287 μm | Change in mean thickness, Total retinal central subfield [2]: −0.691 μm | Change in mean thickness, Total retinal foveal center [2]: 0.804 μm | Change in mean thickness, Total retinal mid subfield [2]: −1.049 μm | Change in volume, ELM-EZ central subfield [2]: −0.002 mm^3 | Change in volume, ELM-EZ mid subfield [2]: −0.003 mm^3 | Change in volume, ELM-RPE [2]: 0.086 mm^3 | Change in volume, ELM-RPE central subfield [2]: −0.002 mm^3 | Change in volume, ELM-RPE mid subfield [2]: −0.007 mm^3 | Change in volume, EZ-RPE [2]: −0.059 mm^3 | Change in volume, EZ-RPE central subfield [2]: −0.001 mm^3 | Change in volume, EZ-RPE mid subfield [2]: −0.004 mm^3 | Change in volume, ONL-EZ central subfield [2]: −0.004 mm^3 | Change in volume, ONL-EZ mid subfield [2]: −0.017 mm^3 | Change in volume, ONL-RPE [2]: 0.009 mm^3 | Change in volume, ONL-RPE central subfield [2]: −0.005 mm^3 | Change in volume, ONL-RPE mid subfield [2]: −0.021 mm^3 | Change in volume, RPE-BM [2]: −0.049 mm^3 | Change in volume, RPE-BM central subfield [2]: −0.007 mm^3 | Change in volume, RPE-BM mid subfield [2]: −0.017 mm^3 | Change in volume, Total retinal [2]: −0.188 mm^3 | Change in volume, Total retinal central subfield [2]: 0.000 mm^3 | Change in volume, Total retinal mid subfield [2]: −0.004 mm^3 | Map coverage, 0 μm EZ [2]: 3.679% | Map coverage, 0 μm RPE-BM [2]: 1.099% | Map coverage, 10 μm EZ [2]: 3.699% | Map coverage, 20 μm EZ [2]: 3.574% | Map coverage, 50 μm RPE-BM [2]: −3.494% | Map coverage, 150 μm RPE-BM [2]: 3.335% | Map coverage, 250 μm RPE-BM [2]: −0.011% | Change in mean thickness, ELM-EZ central subfield [3]: −1.658 μm | Change in mean thickness, ELM-EZ mid subfield [3]: −1.049 μm | Change in mean thickness, ELM-RPE central subfield [3]: −3.461 μm | Change in mean thickness, ELM-RPE foveal center [3]: 2.925 μm
